Patent publication US20120252729A1, “PTH-CONTAINING THERAPEUTIC/PROPHYLACTIC AGENT FOR OSTEOPOROSIS, CHARACTERIZED IN THAT PTH IS ADMINISTERED ONCE A WEEK IN A UNIT DOSE OF 100 TO 200 UNITS” (ASAHI KASEI PHARMA CORPORATION, priority 2009, published 2012)

Experiments:
[1] = system: high-risk patients diagnosed with primary osteoporosis; assay: Working Example 2: new (incl. multiple, new+worsening) vertebral fractures by x-ray, test drug 200 units once a week for 72 weeks vs placebo; type: in vivo, human
Source text: The above patients also took two tablets of a calcium agent once a day after dinner. […] The preparation contained precipitated calcium carbonate, magnesium carbonate, cholecalciferol (vitamin D3), and the like as components and is marketed under the trade name New Calcichew (trademark) D3″ (sold by: Daiichi Sankyo Health Care, manufactured and sold by: Nitto Pharmaceutical Industries, Ltd.).
(§1) The incidence of bone fractures was checked by frontal and lateral x-rays of the fourth thoracic to the fourth lumbar spine taken at the start and every 24 weeks thereafter.
Here, “multiple vertebral fractures” was defined as two or more new vertebral fractures. When the incidence of multiple vertebral fractures (number of cases) was compared in the test drug group (n=261) and control group (n=281) after 72 weeks of administration, it was 2.1% (6 cases) in the control group and 0.8% (2 cases) in the test drug group.

[2] = system: high-risk patients diagnosed with primary osteoporosis; assay: Working Example 2: worsening vertebral fractures; type: in vivo, human; conditions: 200 units weekly, FAS
Source text: The vertebral fractures in the present invention also include both new fractures and worsening fractures. […] New and worsening [fractures] can be classified by the grade increase pattern according to the criteria of Genant. Concretely speaking, a fracture is diagnosed as a new fracture when a change is found from grade 0 to grade 1, 2, or 3. It can be regarded as a worsening fracture when a change is found from grade 1 to grade 2 or 3 or from grade 2 to grade 3. The vertebral height was measured according to the method of Inoue et al. (Non-patent reference 35) and the method of Hayashi et al. (Non-patent Reference 36) to accurately assess the changes in grade.
as §1
The efficacy of the test drug on worsening bone fractures was studied.

[3] = system: high-risk patients diagnosed with primary osteoporosis; assay: Working Example 2: CT geometry of the proximal femur (neck, trochanter, shaft); type: in vivo, human; conditions: 200 units weekly
Description: For the CT geometry, the proximal part of the femur was measured at the start and after 48 and 72 weeks using multislice CT scan.
The effects of the test drug on three parts of the femur (neck of the femur, trochanter, and shaft of the femur) were studied using ordinary CT scans.

[4] = in vivo
Description: The serum calcium was measured at the start, after 12 weeks, after 24 weeks, after 48 weeks, and after 72 weeks. Serum calcium standard value: 8.4 to 10.4 mg/dL. The standard concomitant drug (610 mg of calcium, 400 IU of vitamin D3, and 30 mg of magnesium) was taken once a day after dinner from the time of consent to the end of the trial.

[5] = 200 units weekly, 72 weeks, No. of fractures: five or more
[6] = 200 units weekly, 72 weeks, No. of fractures: four
[7] = 200 units weekly, 72 weeks, No. of fractures: none
[8] = 200 units weekly, 72 weeks, No. of fractures: one
[9] = 200 units weekly, 72 weeks, No. of fractures: three
[10] = 200 units weekly, 72 weeks, No. of fractures: two
[11] = 200 units weekly, after 72 weeks, n=261
[12] = 200 units weekly, history of Alfacalcidol
[13] = 200 units weekly, history of calcitriol
[14] = 200 units weekly, history of calcium L-aspartate
[15] = 200 units weekly, history of calcium lactate
[16] = 200 units weekly, history of elcatonin
[17] = 200 units weekly, history of menatetrenone
[18] = 200 units weekly, history of raloxifene hydrochloride
[19] = 200 units weekly, patients taking glucocorticoid

Substance: teriparatide acetate
- Occurrence of new vertebral fractures after 48 weeks ([1]; 200 units weekly, 48 to 72 weeks): no new vertebral fractures occurred after 48 weeks
- New vertebral fractures: Incidence (%) [1, 5]: 0.0%
- New vertebral fractures: No. of subjects [1, 5]: 0
- New vertebral fractures: Incidence (%) [1, 6]: 0.0%
- New vertebral fractures: No. of subjects [1, 6]: 0
- New vertebral fractures: Incidence (%) [1, 7]: 97.3%
- New vertebral fractures: No. of subjects [1, 7]: 254
- New vertebral fractures: Incidence (%) [1, 8]: 1.9%
- New vertebral fractures: No. of subjects [1, 8]: 5
- New vertebral fractures: Incidence (%) [1, 9]: 0.0%
- New vertebral fractures: No. of subjects [1, 9]: 0
- New vertebral fractures: Incidence (%) [1, 10]: 0.8%
- New vertebral fractures: No. of subjects [1, 10]: 2
- Lowering of the risk of vertebral fractures (new+worsening) in comparison to the placebo ([1]; 200 units weekly, after 72 weeks): 78.6%
- Incidence of vertebral fractures (new+worsening) by Kaplan-Meier estimation ([1]; 200 units weekly, after 72 weeks, FAS): 3.5%
- Incidence of multiple vertebral fractures (two or more new vertebral fractures) [1, 11]: 0.8%
- Multiple vertebral fractures, number of cases [1, 11]: 2 cases
- New vertebral fractures: No. with fractures ([1]; 200 units weekly, complication (diabetes): no): 7
- Incidence of new vertebrae fractures (%) ([1]; 200 units weekly, complication (diabetes): no, after 24 W): 2.8%
- Incidence of new vertebrae fractures (%) ([1]; 200 units weekly, complication (diabetes): no, after 48 W): 3.3%
- Incidence of new vertebrae fractures (%) ([1]; 200 units weekly, complication (diabetes): no, after 72 W): 3.3%
- New vertebral fractures: No. with fractures ([1]; 200 units weekly, complication (diabetes): yes): 0
- Incidence of new vertebrae fractures (%) ([1]; 200 units weekly, complication (diabetes): yes, after 24 W): 0.0%
- Incidence of new vertebrae fractures (%) ([1]; 200 units weekly, complication (diabetes): yes, after 48 W): 0.0%
- Incidence of new vertebrae fractures (%) ([1]; 200 units weekly, complication (diabetes): yes, after 72 W): 0.0%
- New vertebral fractures: No. with fractures ([1]; 200 units weekly, complication (hyperlipidemia): no): 4
- Incidence of new vertebrae fractures (%) ([1]; 200 units weekly, complication (hyperlipidemia): no, after 24 W): 2.2%
- Incidence of new vertebrae fractures (%) ([1]; 200 units weekly, complication (hyperlipidemia): no, after 48 W): 3.0%
- Incidence of new vertebrae fractures (%) ([1]; 200 units weekly, complication (hyperlipidemia): no, after 72 W): 3.0%
- New vertebral fractures: No. with fractures ([1]; 200 units weekly, complication (hyperlipidemia): yes): 3
- Incidence of new vertebrae fractures (%) ([1]; 200 units weekly, complication (hyperlipidemia): yes, after 24 W): 3.2%
- Incidence of new vertebrae fractures (%) ([1]; 200 units weekly, complication (hyperlipidemia): yes, after 48 W): 3.2%
- Incidence of new vertebrae fractures (%) ([1]; 200 units weekly, complication (hyperlipidemia): yes, after 72 W): 3.2%
- New vertebral fractures: No. with fractures ([1]; 200 units weekly, complication (hypertension): no): 3
- Incidence of new vertebrae fractures (%) ([1]; 200 units weekly, complication (hypertension): no, after 24 W): 2.1%
- Incidence of new vertebrae fractures (%) ([1]; 200 units weekly, complication (hypertension): no, after 48 W): 3.1%
- Incidence of new vertebrae fractures (%) ([1]; 200 units weekly, complication (hypertension): no, after 72 W): 3.1%
- New vertebral fractures: No. with fractures ([1]; 200 units weekly, complication (hypertension): yes): 4
- Incidence of new vertebrae fractures (%) ([1]; 200 units weekly, complication (hypertension): yes, after 24 W): 3.1%
- Incidence of new vertebrae fractures (%) ([1]; 200 units weekly, complication (hypertension): yes, after 48 W): 3.1%
- Incidence of new vertebrae fractures (%) ([1]; 200 units weekly, complication (hypertension): yes, after 72 W): 3.1%
- Incidence of new vertebral fractures (%) ([1]; 200 units weekly, creatinine clearance abnormal (<80), after 24 W): 2.8%
- Incidence of new vertebral fractures (%) ([1]; 200 units weekly, creatinine clearance abnormal (<80), after 48 W): 3.4%
- Incidence of new vertebral fractures (%) ([1]; 200 units weekly, creatinine clearance abnormal (<80), after 72 W): 3.4%
- New vertebral fractures: No. with fractures ([1]; 200 units weekly, creatinine clearance at start abnormal (<80)): 6
- New vertebral fractures: No. with fractures ([1]; 200 units weekly, creatinine clearance at start normal (≧80)): 0
- Incidence of new vertebral fractures (%) ([1]; 200 units weekly, creatinine clearance normal (≧80), after 24 W): 0.0%
- Incidence of new vertebral fractures (%) ([1]; 200 units weekly, creatinine clearance normal (≧80), after 48 W): 0.0%
- Incidence of new vertebral fractures (%) ([1]; 200 units weekly, creatinine clearance normal (≧80), after 72 W): 0.0%
- New vertebral fractures: no (patients) [1, 12]: 62
- New vertebral fractures: yes (patients) [1, 12]: 1
- New vertebral fractures: no (patients) [1, 13]: 7
- New vertebral fractures: yes (patients) [1, 13]: 1
- New vertebral fractures: no (patients) [1, 14]: 28
- New vertebral fractures: yes (patients) [1, 14]: 1
- New vertebral fractures: no (patients) [1, 15]: 8
- New vertebral fractures: yes (patients) [1, 15]: 0
- New vertebral fractures: no (patients) [1, 16]: 35
- New vertebral fractures: yes (patients) [1, 16]: 2
- New vertebral fractures: no (patients) [1, 17]: 6
- New vertebral fractures: yes (patients) [1, 17]: 0
- New vertebral fractures: no (patients) [1, 18]: 20
- New vertebral fractures: yes (patients) [1, 18]: 0
- Existence of new vertebral fractures, Fracture: no (patients) [1, 19]: 29
- Existence of new vertebral fractures, Fracture: yes (patients) [1, 19]: 0
- New vertebral fractures: No. with fractures ([1]; 200 units weekly, prior osteoporosis treatment (no)): 4
- Incidence of new vertebral fractures (%) ([1]; 200 units weekly, prior osteoporosis treatment (no), after 24 W): 2.4%
- Incidence of new vertebral fractures (%) ([1]; 200 units weekly, prior osteoporosis treatment (no), after 48 W): 3.2%
- Incidence of new vertebral fractures (%) ([1]; 200 units weekly, prior osteoporosis treatment (no), after 72 W): 3.2%
- New vertebral fractures: No. with fractures ([1]; 200 units weekly, prior osteoporosis treatment (yes)): 3
- Incidence of new vertebral fractures (%) ([1]; 200 units weekly, prior osteoporosis treatment (yes), after 24 W): 2.9%
- Incidence of new vertebral fractures (%) ([1]; 200 units weekly, prior osteoporosis treatment (yes), after 48 W): 2.9%
- Incidence of new vertebral fractures (%) ([1]; 200 units weekly, prior osteoporosis treatment (yes), after 72 W): 2.9%
- New vertebral fractures, No. with fractures ([1]; FAS, 72 weeks): 7
- New vertebral fractures, No. with fractures ([1]; time after administration >24 W-≦48 W): 2
- New vertebral fractures, No. with fractures ([1]; time after administration >48 W-≦72 W): 0
- New vertebral fractures, No. with fractures ([1]; time after administration ≦24 W): 6
- Difference between test drug group and control group after 72 W (%), incidence of worsening fractures [2]: 1.8%
- Worsening fractures: No. with fractures [2]: 1
- Incidence of worsening fractures (%) ([2]; after 24 W): 0.4%
- Incidence of worsening fractures (%) ([2]; after 48 W): 0.4%
- Incidence of worsening fractures (%) ([2]; after 72 W): 0.4%
- Maximum section modulus (SM (Z min)), change from baseline after 48 weeks (%) ([3]; neck of femur): 3.43%
- Maximum section modulus (SM (Z min)), change from baseline after 72 weeks (%) ([3]; neck of femur): 1.87%
- Volume bone mineral density (cortical bone) [vBMD cortical], change from baseline after 48 weeks (%) ([3]; neck of femur): −0.77%
- Volume bone mineral density (cortical bone) [vBMD cortical], change from baseline after 72 weeks (%) ([3]; neck of femur): −1.14%
- Volume bone mineral density (total) [vBMD total], change from baseline after 48 weeks (%) ([3]; neck of femur): 0.92%
- Volume bone mineral density (total) [vBMD total], change from baseline after 72 weeks (%) ([3]; neck of femur): 0.15%
- Maximum section modulus (SM (Z min)), change from baseline after 48 weeks (%) ([3]; shaft of femur): 1.28%
- Maximum section modulus (SM (Z min)), change from baseline after 72 weeks (%) ([3]; shaft of femur): 2.69%
- Volume bone mineral density (cortical bone) [vBMD cortical], change from baseline after 48 weeks (%) ([3]; shaft of femur): 0.59%
- Volume bone mineral density (cortical bone) [vBMD cortical], change from baseline after 72 weeks (%) ([3]; shaft of femur): 0.18%
- Volume bone mineral density (total) [vBMD total], change from baseline after 48 weeks (%) ([3]; shaft of femur): 1.03%
- Volume bone mineral density (total) [vBMD total], change from baseline after 72 weeks (%) ([3]; shaft of femur): 1.25%
- Maximum section modulus (SM (Z min)), change from baseline after 48 weeks (%) ([3]; trochanter): 5.19%
- Maximum section modulus (SM (Z min)), change from baseline after 72 weeks (%) ([3]; trochanter): 3.20%
- Volume bone mineral density (cortical bone) [vBMD cortical], change from baseline after 48 weeks (%) ([3]; trochanter): −0.49%
- Volume bone mineral density (cortical bone) [vBMD cortical], change from baseline after 72 weeks (%) ([3]; trochanter): −1.49%
- Volume bone mineral density (total) [vBMD total], change from baseline after 48 weeks (%) ([3]; trochanter): 1.36%
- Volume bone mineral density (total) [vBMD total], change from baseline after 72 weeks (%) ([3]; trochanter): 0.95%
- Corrected serum calcium value after administration, maximum [4]: 11.6 mg/dL
- Corrected serum calcium value, range of the average [4]: 9.3 to 9.6 mg/dL
- Corrected serum calcium, Mean [4]: 9.5 mg/dL
- Corrected serum calcium, Median [4]: 9.5 mg/dL
- Manifestation of hypercalcemia or hypercalciuria [4]: No manifestation of hypercalcemia or hypercalciuria was found
- Safety in terms of the serum calcium (corrected serum calcium vs control) [4]: equivalent safety in terms of the serum calcium in all groups
